{"source": "ChEMBL document CHEMBL1149539", "about": "“Design, synthesis, and biological activity of folate receptor-targeted prodrugs of thiolate histone deacetylase inhibitors” (Bioorg Med Chem Lett, 2007)", "key": {"MCF7 [1]": {"system": "MCF7", "test": "Growth inhibition of human MCF7 cells after 72 hrs by Alamar Blue assay", "type": "functional, cell-based"}, "Histone deacetylase [2]": {"target": "Histone deacetylase", "test": "Inhibition of HDAC in HeLa cells in presence of DTT after 30 mins by fluorescent activity assay", "type": "cell-based, Homo sapiens"}, "MCF7 [3]": {"system": "MCF7", "test": "Increase in accumulation of acetylated histone H4 in human MCF7 cells in presence of 100 uM folic acid after 14 hrs by Western blot analysis", "type": "functional, cell-based"}, "MCF7 [4]": {"system": "MCF7", "test": "Increase in accumulation of acetylated histone H4 in human MCF7 cells after 14 hrs by Western blot analysis", "type": "functional, cell-based"}, "Histone deacetylase [5]": {"target": "Histone deacetylase", "test": "Inhibition of HDAC in HeLa cells after 30 mins by fluorescent activity assay", "type": "cell-based, Homo sapiens"}}, "note": "The source made the active and inactive calls. The rule behind the calls is not given here.", "data": [{"molecule": "NC1=NC(=O)C2N=C(CNc3ccc(C(=O)N[C@@H](CCC(=O)NCCSSCCCCCCC(=O)Nc4ncc(-c5ccccc5)s4)C(=O)O)cc3)C=NC2=N1", "note": "(some centres not stated)", "values": [{"measurement": "Activity", "setting": "MCF7 [1]", "result": "Dose-dependent effect"}, {"measurement": "IC50", "setting": "Histone deacetylase [2]", "result": 0.27, "unit": "µM"}, {"measurement": "Activity", "setting": "MCF7 [3]", "result": "inactive"}, {"measurement": "Activity", "setting": "MCF7 [4]", "result": "Active"}]}, {"molecule": "NC1=NC(=O)C2N=C(CNc3ccc(C(=O)N[C@@H](CCC(=O)NCCOCCOCCSSCCCCCCC(=O)Nc4ncc(-c5ccccc5)s4)C(=O)O)cc3)C=NC2=N1", "note": "(some centres not stated)", "values": [{"measurement": "IC50", "setting": "Histone deacetylase [2]", "result": 3, "unit": "µM"}]}, {"molecule": "NC1=NC(=O)C2N=C(CNc3ccc(C(=O)N[C@@H](CCC(=O)NCCCCCCSSCCCCCCNC(=O)CC[C@H](NC(=O)c4ccc(NCC5=NC6C(=O)N=C(N)N=C6N=C5)cc4)C(=O)O)C(=O)O)cc3)C=NC2=N1", "note": "(some centres not stated)", "values": [{"measurement": "IC50", "setting": "Histone deacetylase [2]", "result": 9, "unit": "µM"}]}, {"molecule": "NC1=NC(=O)C2N=C(CNc3ccc(C(=O)N[C@@H](CCC(=O)NCCCCCCS)C(=O)O)cc3)C=NC2=N1", "note": "(some centres not stated)", "values": [{"measurement": "IC50", "setting": "Histone deacetylase [5]", "result": 21, "unit": "µM"}]}]}
